Four compounds from US20260335307A1, “ANTIMICROBIAL COMBINATIONS” (Helperby Therapeutics Limited, priority 2022, published 2026) can be followed below.

Assay [1] concerns KPC (Klebsiella pneumoniae carbapenemase) producing K. pneumoniae. The experiment in a line: Chequerboard assay (percentage kill from OD600, MIC and FIC) of 4-mer combination against KPC producing K. pneumoniae. The format is cell-based. The conditions noted are these: Example 4, backbone ceftazidime + colistin. The source says:
(§1) Synergy is not predictable or expected when two or more actives are used in combination. […] One of the ways to assess whether synergy has been observed is to use the “chequerboard” technique. This is a well-accepted method that leads to the generation of a value called the fractional inhibitory concentration index (FICI). Orhan et al., J. Clin. Microbiol. 2005, 43(1):140 describes the chequerboard method and analysis in the paragraph bridging pages 140-141, and explains that the FICI value is a ratio of the sum of the MIC (Minimum Inhibitory Concentration) level of each individual component alone and in the mixture.
FICI or fractional inhibitory concentration index is the sum of the FICs of each antimicrobial when used in combination. […]
In this method, two antibiotics were “fixed” as part of a backbone whilst the two other antibiotics were varied over a doubling concentration scale beginning at the MIC (×1) for the effective dose in monotherapy against the organism being tested. The ΣFIC was then calculated as shown below. […]
Synergy can be expressed as “ΣFIC≤0.25×n”. […]
The bacteria were obtained from Ninewells Hospital and Medical School in Dundee, Scotland. […] The bacteria were measured for OD600 and readings of <0.25 were returned to the incubator. […]

The next assay relates to ESBL E. coli. As to the kind of experiment: Chequerboard assay (OD600, MIC and FIC) of 4-mer combinations against ESBL E. coli. The format is cell-based. The conditions noted are these: for MIC Monotherapy (X): drug alone; for MIC combination therapy (Y): drug in 4-mer ceftazidime, doxycycline; for Ratio Y:X: MIC combination / MIC monotherapy.
Source text: as §1
FICI or fractional inhibitory concentration index is the sum of the FICs of each antimicrobial when used in combination. The FIC or fractional inhibitory concentration of an antimicrobial in a combination, is the MIC of the antimicrobial in the combination divided by the MIC of the same antimicrobial when used alone. Minimum inhibitory concentrations are defined in the art as the lowest concentration of an antimicrobial that will inhibit the visible growth of a microorganism after overnight incubation.
There has in fact been very little previous work in this field. […] This method is applicable for any combination with “n” antimicrobial agents.
In this method, two antibiotics were “fixed” as part of a backbone whilst the two other antibiotics were varied over a doubling concentration scale beginning at the MIC (×1) for the effective dose in monotherapy against the organism being tested. The ΣFIC was then calculated as shown below.
The ΣFIC was divided by “0.5/n” where n=number of antimicrobials in the combination to provide FIC. The inventors opted for this expression because it more closely aligns with the 2-mer synergy levels. The same FIC scale as used for 2-mers was applied: synergy is observed when FIC is <0.5. An “Additive” effect is observed when FIC is 0.5 to <1. Indifference is observed when FIC is 1 to <2. Antagonism is observed when FIC is 2 to 4.
Synergy can be expressed as “ΣFIC≤0.25×n”.
The above method was used in the Examples herein.
The antimicrobial agents were sourced from commercially available sources. They were prepared by being weighed and dissolved in water, PBS, DMSO or acidified water to a final concentration from 1-10 mg/mL. Antimicrobial solutions were diluted to 10× highest concentration used in the experiment and subsequently diluted 2x over a series not exceeding 11 serial dilutions. These left the operator with a maximum of 12 different, descending concentrations of the chosen antimicrobials.
The bacteria were obtained from Ninewells Hospital and Medical School in Dundee, Scotland. They were obtained as patient strains and characterised by Vitek 2 screening. To prepare for the Examples below, the bacteria were grown overnight in Mueller Hinton Cation adjusted broth or until confluent in media with or without supplements. The bacteria were measured for OD600 and readings of <0.25 were returned to the incubator.
All data herein was produced using the same chequerboard assay.
20 uL of antibiotic A (backbone) and 20 uL of antibiotic B (backbone), at a single dilution, were pipetted into all wells of a 96-well plate to be used.
20 uL of the lowest concentration of antibiotic C (first variable) was pipetted into column 1 of the 96-well plate. The second concentration (2-fold more concentrate) was pipetted into column 2. This process was repeated until all concentrations of antibiotic […] to be used were complete.
20 uL of the lowest concentration of antibiotic D (second variable) were pipetted into row A of the 96-well plate. The second concentration (2-fold more concentrate) was pipetted into row B. This process was repeated until all concentrations of antibiotic […] to be used were complete.
120 uL of sterile media (BHI/MHB2) was added.
20 ul of prepared bacterial culture was added.
Plates were sealed with lids and left to incubate for 16 hours, overnight.

Setting [2] is: Example 1, backbone ceftazidime + doxycycline.
Where [3] appears, read: Example 1, backbone colistin + ceftazidime.
The mark [4] stands for this setting: Example 2, backbone colistin + doxycycline.
[5] abbreviates: Example 3, backbone rifampicin + doxycycline.
The mark [6] stands for this setting: Example 1, backbone ceftazidime + doxycycline, colistin, rifampicin.
The mark [7] stands for this setting: Example 2, backbone colistin + doxycycline, colistin, levofloxacin.
[8] abbreviates: Example 3, backbone rifampicin + doxycycline, rifampicin, levofloxacin.

Consider `C[C@H]1c2cccc(O)c2C(=O)C2=C(O)[C@]3(O)C(=O)C(C(N)=O)=C(O)[C@@H](N(C)C)[C@@H]3[C@@H](O)[C@@H]21` [Doxycycline], for which the MIC Monotherapy (X) (in assay [1] (drug alone); with ESBL E. coli (setting [2]); in the assay on ESBL E. coli (setting [3]); in the assay on ESBL E. coli (setting [4]); in the assay on ESBL E. coli (setting [5])) was 1 µg/mL throughout. Also, the MIC combination therapy (Y) in assay [1] (drug in 4-mer ceftazidime, doxycycline, rifampicin, colistin) was found to be 0.25 µg/mL; in the assay on ESBL E. coli (Example 1, backbone colistin + ceftazidime, colistin, rifampicin), 0.25 µg/mL.
With `CO[C@H]1/C=C/O[C@@]2(C)Oc3c(C)c(O)c4c(O)c(c(/C=N/N5CCN(C)CC5)c(O)c4c3C2=O)NC(=O)/C(C)=C\C=C\[C@H](C)[C@H](O)[C@@H](C)[C@@H](O)[C@@H](C)[C@H](OC(C)=O)[C@@H]1C` [Rifampicin], the MIC Monotherapy (X) in the assay with ESBL E. coli (setting [2]) was determined as 4 µg/mL; in the assay with ESBL E. coli (setting [3]), 4 µg/mL; in the assay with ESBL E. coli (setting [5]), 1 µg/mL. In addition, in the assay on ESBL E. coli (setting [6]), the MIC combination therapy (Y) worked out at 0.5 µg/mL.
For `CC(C)(O/N=C(\C(=O)N[C@@H]1C(=O)N2C(C(=O)[O-])=C(C[n+]3ccccc3)CS[C@H]12)c1csc(N)n1)C(=O)O` [Ceftazidime], the MIC with ESBL E. coli (Escherichia coli, read-out: isolate resistant to ceftazidime at) is ≥ 32 µg/mL. Also, the MIC combination therapy (Y) came out at 4 µg/mL in the assay on ESBL E. coli (setting [6]), 16 µg/mL in the assay with ESBL E. coli (setting [7]) and 16 µg/mL in the assay with ESBL E. coli (setting [8]).
In the case of `C[C@H]1COc2c(N3CCN(C)CC3)c(F)cc3c(=O)c(C(=O)O)cn1c23` [Levofloxacin], the “Ratio Y:X” value in the assay with ESBL E. coli (setting [4]) and in the assay with ESBL E. coli (setting [5]) was 0.03125 in each case. Further, the MIC Monotherapy (X) with ESBL E. coli (setting [4]) and in the assay on ESBL E. coli (setting [5]) was 8 µg/mL throughout. Besides, the MIC combination therapy (Y) in the assay on ESBL E. coli (setting [7]) and in the assay on ESBL E. coli (setting [8]) was 0.25 µg/mL throughout.
